Experimental data taken from the supplement of paper PMC10307832.

Experiments:
Assay in all cases: relative viability (nuclei count vs DMSO), 5 days (fraction); higher = more cells survive
[1] = test system: A-427
Procedure, shortened: (§1)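 After 5 days of treatment, lung cancer cells in 1536-well plates were fixed and stained in a single step (final 0.05% Triton X-100, 1% formaldehyde, 1 ug/ml Hoechst) and their nuclei counted on 4× images. Treatment had been applied by pin tool the day after seeding as one drug alone or as a fixed anchor-drug dose with five library-drug doses (not always all listed) in √10 steps. Relative viability is the nuclei count of treated wells divided by that of vehicle wells, and values are medians of duplicate plates.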

[2] = test system: COR-L 105
Procedure, shortened: as §1

[3] = test system: ChaGo-K-1
Procedure, shortened: as §1

[4] = test system: EKVX
Procedure, shortened: as §1

[5] = test system: EMC-BAC-2
Procedure, shortened: as §1

[6] = test system: H3255
Procedure, shortened: as §1

[7] = test system: HCC-366
Procedure, shortened: as §1

[8] = test system: LK-2
Procedure, shortened: as §1

[9] = test system: LOU-NH91
Procedure, shortened: as §1

[10] = test system: NCI-H1666
Procedure, shortened: as §1

[11] = test system: NCI-H1734
Procedure, shortened: as §1

[12] = test system: NCI-H1755
Procedure, shortened: as §1

[13] = test system: NCI-H1975
Procedure, shortened: as §1

[14] = test system: NCI-H2170
Procedure, shortened: as §1

[15] = test system: NCI-H23
Procedure, shortened: as §1

[16] = test system: NCI-H441
Procedure, shortened: as §1

[17] = test system: NCI-H520
Procedure, shortened: as §1

[18] = test system: NCI-H596
Procedure, shortened: as §1

[19] = test system: PC-3 [JPC-3]
Procedure, shortened: as §1

[20] = test system: SK-MES-1
Procedure, shortened: as §1

[21] = test system: SW 900
Procedure, shortened: as §1

SMILES: COc1nc(C)cnc1NS(=O)(=O)c1cccnc1-c1ccc(-c2nnco2)cc1 [Zibotentan] + O=C(c1cc(Cc2n[nH]c(=O)c3ccccc23)ccc1F)N1CCN(C(=O)C2CC2)CC1 [Olaparib] (partner 8 µM)
- relative viability ([1]; first compound 0.08 µM): 0.755
- relative viability ([1]; first compound 0.253 µM): 0.704
- relative viability ([1]; first compound 0.8 µM): 0.64
- relative viability ([1]; first compound 2.53 µM): 0.799
- relative viability ([2]; first compound 0.08 µM): 0.68
- relative viability ([2]; first compound 0.253 µM): 0.605
- relative viability ([2]; first compound 0.8 µM): 0.721
- relative viability ([2]; first compound 2.53 µM): 0.784
- relative viability ([3]; first compound 0.08 µM): 0.393
- relative viability ([3]; first compound 0.253 µM): 0.396
- relative viability ([3]; first compound 0.8 µM): 0.322
- relative viability ([3]; first compound 2.53 µM): 0.393
- relative viability ([4]; first compound 0.08 µM): 0.909
- relative viability ([4]; first compound 0.253 µM): 0.733
- relative viability ([4]; first compound 0.8 µM): 0.799
- relative viability ([4]; first compound 2.53 µM): 0.917
- relative viability ([5]; first compound 0.08 µM): 0.519
- relative viability ([5]; first compound 0.8 µM): 0.562
- relative viability ([5]; first compound 2.53 µM): 0.461
- relative viability ([6]; first compound 0.08 µM): 0.552
- relative viability ([6]; first compound 0.253 µM): 0.529
- relative viability ([6]; first compound 0.8 µM): 0.588
- relative viability ([6]; first compound 2.53 µM): 0.56
- relative viability ([7]; first compound 0.08 µM): 0.396
- relative viability ([7]; first compound 0.253 µM): 0.34
- relative viability ([7]; first compound 0.8 µM): 0.342
- relative viability ([7]; first compound 2.53 µM): 0.365
- relative viability ([8]; first compound 0.08 µM): 0.945
- relative viability ([8]; first compound 0.253 µM): 0.521
- relative viability ([8]; first compound 0.8 µM): 0.75
- relative viability ([8]; first compound 2.53 µM): 0.718
- relative viability ([9]; first compound 0.08 µM): 0.908
- relative viability ([9]; first compound 0.253 µM): 0.854
- relative viability ([9]; first compound 0.8 µM): 0.999
- relative viability ([9]; first compound 2.53 µM): 0.947
- relative viability ([10]; first compound 0.08 µM): 0.753
- relative viability ([10]; first compound 0.253 µM): 0.726
- relative viability ([10]; first compound 0.8 µM): 0.765
- relative viability ([10]; first compound 2.53 µM): 0.728
- relative viability ([11]; first compound 0.08 µM): 0.593
- relative viability ([11]; first compound 0.253 µM): 0.588
- relative viability ([11]; first compound 0.8 µM): 0.653
- relative viability ([11]; first compound 2.53 µM): 0.699
- relative viability ([12]; first compound 0.08 µM): 0.893
- relative viability ([12]; first compound 0.253 µM): 0.846
- relative viability ([12]; first compound 0.8 µM): 0.908
- relative viability ([12]; first compound 2.53 µM): 0.907
- relative viability ([13]; first compound 0.08 µM): 0.855
- relative viability ([13]; first compound 0.253 µM): 0.742
- relative viability ([13]; first compound 0.8 µM): 0.749
- relative viability ([13]; first compound 2.53 µM): 0.765
- relative viability ([14]; first compound 0.08 µM): 0.571
- relative viability ([14]; first compound 0.253 µM): 0.648
- relative viability ([14]; first compound 0.8 µM): 0.522
- relative viability ([14]; first compound 2.53 µM): 0.568
- relative viability ([15]; first compound 0.08 µM): 0.266
- relative viability ([15]; first compound 0.253 µM): 0.235
- relative viability ([15]; first compound 0.8 µM): 0.242
- relative viability ([15]; first compound 2.53 µM): 0.251
- relative viability ([16]; first compound 0.08 µM): 0.549
- relative viability ([16]; first compound 0.253 µM): 0.517
- relative viability ([16]; first compound 0.8 µM): 0.638
- relative viability ([16]; first compound 2.53 µM): 0.576
- relative viability ([17]; first compound 0.08 µM): 0.282
- relative viability ([17]; first compound 0.253 µM): 0.296
- relative viability ([17]; first compound 0.8 µM): 0.252
- relative viability ([17]; first compound 2.53 µM): 0.352
- relative viability ([18]; first compound 0.08 µM): 0.661
- relative viability ([18]; first compound 0.253 µM): 0.595
- relative viability ([18]; first compound 0.8 µM): 0.831
- relative viability ([18]; first compound 2.53 µM): 0.774
- relative viability ([19]; first compound 0.08 µM): 1.1
- relative viability ([19]; first compound 0.253 µM): 1.09
- relative viability ([19]; first compound 0.8 µM): 1.21
- relative viability ([19]; first compound 2.53 µM): 1.14
- relative viability ([20]; first compound 0.08 µM): 0.705
- relative viability ([20]; first compound 0.253 µM): 0.465
- relative viability ([20]; first compound 0.8 µM): 0.68
- relative viability ([20]; first compound 2.53 µM): 0.787
- relative viability ([21]; first compound 0.08 µM): 0.922
- relative viability ([21]; first compound 0.253 µM): 0.647
- relative viability ([21]; first compound 0.8 µM): 0.853
- relative viability ([21]; first compound 2.53 µM): 0.81

SMILES: COc1nc(C)cnc1NS(=O)(=O)c1cccnc1-c1ccc(-c2nnco2)cc1 [Zibotentan] + Cc1cc(Nc2cc(N3CCN(C)CC3)nc(Sc3ccc(NC(=O)C4CC4)cc3)n2)n[nH]1 [Tozasertib] (partner 0.1 µM)
- relative viability ([1]; first compound 0.08 µM): 0.232
- relative viability ([1]; first compound 0.253 µM): 0.205
- relative viability ([1]; first compound 0.8 µM): 0.25
- relative viability ([1]; first compound 2.53 µM): 0.258
- relative viability ([2]; first compound 0.08 µM): 0.309
- relative viability ([2]; first compound 0.253 µM): 0.344
- relative viability ([2]; first compound 0.8 µM): 0.371
- relative viability ([2]; first compound 2.53 µM): 0.362
- relative viability ([3]; first compound 0.08 µM): 0.208
- relative viability ([3]; first compound 0.253 µM): 0.218
- relative viability ([3]; first compound 0.8 µM): 0.21
- relative viability ([3]; first compound 2.53 µM): 0.24
- relative viability ([4]; first compound 0.08 µM): 0.414
- relative viability ([4]; first compound 0.253 µM): 0.348
- relative viability ([4]; first compound 0.8 µM): 0.365
- relative viability ([4]; first compound 2.53 µM): 0.428
- relative viability ([5]; first compound 0.08 µM): 0.286
- relative viability ([5]; first compound 0.8 µM): 0.293
- relative viability ([5]; first compound 2.53 µM): 0.274
- relative viability ([6]; first compound 0.08 µM): 0.693
- relative viability ([6]; first compound 0.253 µM): 0.604
- relative viability ([6]; first compound 0.8 µM): 0.742
- relative viability ([6]; first compound 2.53 µM): 0.888
- relative viability ([7]; first compound 0.08 µM): 0.132
- relative viability ([7]; first compound 0.253 µM): 0.0914
- relative viability ([7]; first compound 0.8 µM): 0.0627
- relative viability ([7]; first compound 2.53 µM): 0.156
- relative viability ([8]; first compound 0.08 µM): 0.148
- relative viability ([8]; first compound 0.253 µM): 0.191
- relative viability ([8]; first compound 0.8 µM): 0.166
- relative viability ([8]; first compound 2.53 µM): 0.198
- relative viability ([9]; first compound 0.08 µM): 0.729
- relative viability ([9]; first compound 0.253 µM): 0.586
- relative viability ([9]; first compound 0.8 µM): 0.722
- relative viability ([9]; first compound 2.53 µM): 0.669
- relative viability ([10]; first compound 0.08 µM): 0.582
- relative viability ([10]; first compound 0.253 µM): 0.593
- relative viability ([10]; first compound 0.8 µM): 0.784
- relative viability ([10]; first compound 2.53 µM): 0.646
- relative viability ([11]; first compound 0.08 µM): 0.283
- relative viability ([11]; first compound 0.253 µM): 0.253
- relative viability ([11]; first compound 0.8 µM): 0.247
- relative viability ([11]; first compound 2.53 µM): 0.326
- relative viability ([12]; first compound 0.08 µM): 0.475
- relative viability ([12]; first compound 0.253 µM): 0.58
- relative viability ([12]; first compound 0.8 µM): 0.602
- relative viability ([12]; first compound 2.53 µM): 0.657
- relative viability ([13]; first compound 0.08 µM): 0.732
- relative viability ([13]; first compound 0.253 µM): 0.695
- relative viability ([13]; first compound 0.8 µM): 0.727
- relative viability ([13]; first compound 2.53 µM): 0.831
- relative viability ([14]; first compound 0.08 µM): 0.789
- relative viability ([14]; first compound 0.253 µM): 0.693
- relative viability ([14]; first compound 0.8 µM): 0.809
- relative viability ([14]; first compound 2.53 µM): 0.741
- relative viability ([15]; first compound 0.08 µM): 0.284
- relative viability ([15]; first compound 0.253 µM): 0.331
- relative viability ([15]; first compound 0.8 µM): 0.314
- relative viability ([15]; first compound 2.53 µM): 0.413
- relative viability ([16]; first compound 0.08 µM): 0.633
- relative viability ([16]; first compound 0.253 µM): 0.545
- relative viability ([16]; first compound 0.8 µM): 0.728
- relative viability ([16]; first compound 2.53 µM): 0.592
- relative viability ([17]; first compound 0.08 µM): 0.431
- relative viability ([17]; first compound 0.253 µM): 0.479
- relative viability ([17]; first compound 0.8 µM): 0.441
- relative viability ([17]; first compound 2.53 µM): 0.442
- relative viability ([18]; first compound 0.08 µM): 0.883
- relative viability ([18]; first compound 0.253 µM): 0.846
- relative viability ([18]; first compound 0.8 µM): 0.684
- relative viability ([18]; first compound 2.53 µM): 1.07
- relative viability ([19]; first compound 0.08 µM): 0.869
- relative viability ([19]; first compound 0.253 µM): 0.903
- relative viability ([19]; first compound 0.8 µM): 0.853
- relative viability ([19]; first compound 2.53 µM): 0.878
- relative viability ([20]; first compound 0.08 µM): 0.999
- relative viability ([20]; first compound 0.253 µM): 0.809
- relative viability ([20]; first compound 0.8 µM): 0.874
- relative viability ([20]; first compound 2.53 µM): 0.877
- relative viability ([21]; first compound 0.08 µM): 0.553
- relative viability ([21]; first compound 0.253 µM): 0.549
- relative viability ([21]; first compound 0.8 µM): 0.617
- relative viability ([21]; first compound 2.53 µM): 0.586
